Measurements from patent US7879864B2, “Substituted 8-aminoalkoxy-xanthine compounds and compositions useful in the treatment of hyperlipidemia and diabetes” (Sanofi-Aventis Deutschland GmbH, priority 2004, dated 2011).
Where a name gives a salt, the structure may show the parent alone.

How the values were obtained:
[1] = target: T1, DPP-IV from porcine kidney (Sus scrofa, UniProt P22411); assay: Measurement of the DPP-IV activity (fluorimetric H-Ala-Pro-AFC conversion); format: biochemical; settings: DPP-IV 1 mU/ml, H-Ala-Pro-AFC 15 μM, Tris/HCl 40 mM pH 7.4, room temperature, typically 10 min
T1 construct: DPP-IV from porcine kidney (Sigma, Munich); purchased Sigma, Munich; host or cells: porcine kidney
Method: The activity of the compounds was assayed as follows: • Measurement of the DPP-IV activity:
The reaction was carried out at room temperature for various times (typically 10 min) and stopped at the end of the reaction by adding 20 μl of ZnCl2 (1 M). […] When inhibitors were added, the added buffer volume was adapted so that a total volume of 200 μl was maintained for the assay mixture.

T1 sequence (P22411 whole entry): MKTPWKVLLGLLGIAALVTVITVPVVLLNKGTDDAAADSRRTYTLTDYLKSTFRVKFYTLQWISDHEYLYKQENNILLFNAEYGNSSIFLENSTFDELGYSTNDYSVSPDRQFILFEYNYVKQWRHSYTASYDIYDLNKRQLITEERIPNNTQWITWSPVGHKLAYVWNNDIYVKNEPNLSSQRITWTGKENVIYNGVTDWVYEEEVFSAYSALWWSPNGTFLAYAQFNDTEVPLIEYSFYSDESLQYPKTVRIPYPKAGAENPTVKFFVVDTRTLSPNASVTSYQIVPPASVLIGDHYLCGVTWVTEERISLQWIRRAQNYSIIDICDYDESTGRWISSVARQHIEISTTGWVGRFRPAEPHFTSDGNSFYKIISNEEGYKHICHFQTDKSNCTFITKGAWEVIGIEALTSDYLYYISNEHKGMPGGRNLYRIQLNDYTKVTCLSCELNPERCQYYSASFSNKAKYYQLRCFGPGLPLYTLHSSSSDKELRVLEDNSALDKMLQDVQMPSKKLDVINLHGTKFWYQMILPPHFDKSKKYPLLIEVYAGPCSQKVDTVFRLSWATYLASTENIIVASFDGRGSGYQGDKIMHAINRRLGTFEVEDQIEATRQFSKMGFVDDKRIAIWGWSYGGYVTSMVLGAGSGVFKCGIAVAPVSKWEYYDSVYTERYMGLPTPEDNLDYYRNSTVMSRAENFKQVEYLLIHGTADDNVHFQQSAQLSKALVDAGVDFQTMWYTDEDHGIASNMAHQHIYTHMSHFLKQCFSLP

Structure (SMILES)	IC50 [1] [µM]	melting point [°C]
CC(C)=CCn1c(OCC(N)Cc2ccc(Cl)cc2)nc2c1c(=O)n(CC(=O)c1ccccc1)c(=O)n2C (stereo not shown) [Example 3, 8-[2-Amino-3-(4-chlorophenyl)propoxyl]-3-methyl-7-(3-methylbut-2-enyl)-1-(2-oxo-2-phenylethyl)-3,7-dihydropurine-2,6-dione]	0.46	–
CC(C)=CCn1c(OC[C@H](C)N)nc2c1c(=O)n(CC(=O)c1ccccc1)c(=O)n2C [Example 4, (S)-8-(2-Aminopropoxy)-3-methyl-7-(3-methylbut-2-enyl)-1-(2-oxo-2-phenylethyl)-3,7-dihydropurine-2,6-dione]	0.028	–
CC(C)=CCn1c(OC[C@H]2CCNC2)nc2c1c(=O)n(CC(=O)c1ccccc1)c(=O)n2C [Example 9, (S)-3-Methyl-7-(3-methylbut-2-enyl)-1-(2-oxo-2-phenylethyl)-8-(pyrrolidin-3-ylmethoxy)-3,7-dihydropurine-2,6-dione hydrochloride]	0.12	–
CC(C)=CCn1c(OC[C@@H](C)N)nc2c1c(=O)n(CC(=O)c1ccccc1)c(=O)n2C [Example 11, (R)-8-(2-Aminopropoxy)-3-methyl-7-(3-methylbut-2-enyl)-1-(2-oxo-2-phenylethyl)-3,7-dihydropurine-2,6-dione]	0.1	–

Further lines, results first:

IC50 [1] [µM]	melting point [°C]	Structure (SMILES)
0.0045	–	CC(C)=CCn1c(OC2CCCCC2CN)nc2c1c(=O)n(CC(=O)c1ccccc1)c(=O)n2C (mixture of isomers) [Example 37, trans-8-(2-Aminomethylcyclohexyloxy)-3-methyl-7-(3-methylbut-2-enyl)-1-(2-oxo-2-phenylethyl)-3,7-dihydropurine-2,6-dione hydrochloride (mixture of diastereomers)]
0.013	–	CC(C)=CCn1c(O[C@@H]2CCCC[C@@H]2CN)nc2c1c(=O)n(CC(=O)c1ccccc1)c(=O)n2C (relative stereo) [Example 28, cis-8-(2-Aminomethylcyclohexyloxy)-3-methyl-7-(3-methylbut-2-enyl)-1-(2-oxo-2-phenylethyl)-3,7-dihydropurine-2,6-dione]
–	151.7	CC(C)=CCn1c(O[C@@H]2CCCC[C@H]2CN)nc2c1c(=O)n(CC(=O)c1ccccc1)c(=O)n2C (single isomer, unassigned; diastereomer 1) [Example 38, trans-8-(2-Aminomethylcyclohexyloxy)-3-methyl-7-(3-methylbut-2-enyl)-1-(2-oxo-2-phenylethyl)-3,7-dihydropurine-2,6-dione (diastereomer 1)]
0.02	–	CC(C)=CCn1c(OCCN)nc2c1c(=O)n(CC(=O)c1ccccc1)c(=O)n2C [Example 2, 8-(2-Aminoethoxy)-3-methyl-7-(3-methylbut-2-enyl)-1-(2-oxo-2-phenylethyl)-3,7-dihydropurine-2,6-dione]
0.051	–	CC(C)=CCn1c(OCC2CCCCN2)nc2c1c(=O)n(CC(=O)c1ccccc1)c(=O)n2C (stereo not shown) [Example 7, 3-Methyl-7-(3-methylbut-2-enyl)-1-(2-oxo-2-phenylethyl)-8-(piperidin-2-ylmethoxy)-3,7-dihydropurine-2,6-dione]
0.034	–	CC(C)=CCn1c(OC[C@@H]2CCNC2)nc2c1c(=O)n(CC(=O)c1ccccc1)c(=O)n2C [Example 10, (R)-3-Methyl-7-(3-methylbut-2-enyl)-1-(2-oxo-2-phenylethyl)-8-(pyrrolidin-3-ylmethoxy)-3,7-dihydropurine-2,6-dione hydrochloride]
